Entries after “also recorded” stand apart in the source; their conditions may differ.
Key:
Hdac1,2 = experiment: in vitro enzyme assays, IC50 determination (FIG. 17A); assay type: biochemical
Protocol: (A). For IC50 determination, recombinant HDAC enzymes were treated with HDAC1,2 or HDAC3 inhibitors in in vitro HDAC assays. (B). Western blots for H3K23ac using extracts from Pre-B-ALL SupB15 cells treated with increasing dose of HDAC1,2 inhibitor (ACY1035). (C). Hdac1^FI/FI, 2^FI/FI cells were infected with Ad-Cre virus to delete HDAC1 and HDAC2 (HDAC1,2 null) or uninfected (WT). (D). Hdac3^FI/FI cells were either uninfected (WT) or infected with Ad-Cre virus to delete Hdac3. HDAC3-null cells were treated with DMSO or the HDAC1,2 selective inhibitor.
We have determined 2 μM (FIG. 17B) as the minimum dose for the ACY compounds, respectively, that when added to cells increased H3K23ac (a mark targeted by Hdac1,2 but not Hdac3).

[1] = tested on: SupB15 (Ph+PreB-ALL) cells; experiment: γH2AX immunofluorescence; assay type: cell-based, human; settings: 2 μM, 48 hours
Protocol: (§1) SupB15 cells were treated with 2 μM ACY1035, ACY1071, ACY957, or solvent (DMSO) for 48 hours. (A) Immunofluorescence with γH2AX was performed on treated SupB15 cells. The number of γH2AX foci was counted in around 100 cells for each treatment and classified into cells with no foci, 1-5, 6-10, and greater than 10 foci. (B) SupB15 cells treated with DMSO or ACY1035 for 48 hours were tested via neutral comet assay to measure the amount of double-strand breaks (DSBs), indicated by the tail.
BCR-ABL promotes DNA repair to prevent DNA damage accumulation in Philadelphia chromosome-positive (Ph+) leukemia cells. To examine the effect of various HDAC1,2-selective inhibitors on DNA repair and DNA damage response in Pre-B-ALL cells that express BCR-ABL, SupB15 (Ph+PreB-ALL) cells were treated with 2 μM ACY1035 or 2 μM ACY1071 or 2 μM ACY957 for 48 hours.

SupB15 cells [2] = experiment: neutral comet assay; assay type: cell-based, human; settings: 48 hours
Protocol: as §1
We next asked whether double-strand break repair is impaired in SupB15 cells. We used neutral comet assays to measure the efficiency of double-strand break repair following treatment with ACY1035 for 48 hours. The neutral comet assay specifically measures double-strand breaks and not single-strand breaks. In this assay, control and HDAC1,2 inhibitor treated SupB15 cells were embedded in low melting agarose and subjected to electrophoresis to separate damaged DNA from intact DNA. Damaged DNA runs faster and therefore forms a tail, and the intact DNA is present in the head (FIG. 24B). DNA was visualized with sybrgreen staining.

SupB15 cells [3] = experiment: BrdU ChIP assay, γH2AX on nascent chromatin; assay type: cell-based, human
Source text: The majority of chromatin-bound proteins that decreased following ACY1035 plus doxorubicin treatment compared to ACY1035 treatment alone belong to DNA replication and DNA replication-associated repair processes (FIGS. 29A and 29B).

[4] = tested on: Ph+ALL patient derived xenograft; experiment: Ph+ALL patient-derived xenograft mouse model; assay type: in vivo; settings: for human CD45 and CD19 markers in bone marrow: 25 mg/kg ACY1035 every other day i.p., 0.25 mg/kg doxorubicin once a week i.v., vs solvent; for white cell burden: vs solvent-treated mice
Protocol: Patient-derived xenograft mice were treated with either cyclodextrin (solvent) or 25 mg/kg ACY1035 every other day for a total of 21 doses. (A) The level of human CD19, CD45, and CD34 markers were assessed in the bone marrow of these mice by FACS analysis. For each FACS marker, the bars represent (from left to right): solvent, ACY1035, doxorubicin, ACY1035+doxorubicin. (B) Solvent-treated mice have bones infiltrated with white blood cells.
Additional experiments were performed to assess the therapeutic benefits of HDAC1,2 inhibition in vivo using primary Ph+ALL patient derived xenograft mouse models. NOD/SCID mice were irradiated with a sub lethal dose of irradiation to ablate the immune system in these mice. Immune-compromised NSG mice were then injected with 2×10^6 CD34+ cells isolated from a Ph+ ALL patient. Bone and spleens were harvested from these primary xenograft mice when the leukemia burden reached the maximum 90-95% level as determined by FACS analysis for human CD19 and CD45 markers. Cells isolated from bone marrow and spleen of these primary xenograft mice were frozen in liquid nitrogen until use. A mixture of bone marrow and spleen cells from the primary xenograft mice was then injected into a cohort of sub-lethally irradiated NOD/SCID mice. Mice were divided into four treatment groups: solvent, ACY1035, doxorubicin, and ACY1035 plus doxorubicin. Xenograft mice were injected according to one of the four treatment groups after 5 days post-xenograft induction, when human CD45 marker reached around 5-10% in the peripheral blood. Mice were injected with 25 mg/kg ACY1035 every other day via i.p. and 0.25 mg/kg doxorubicin once a week via i.v., a dosing schedule that has minimal toxicity in immune compromised mice.
In this PDX model, the majority of leukemia cells homed in the bone marrow and not spleen. […] Furthermore, a decrease in human CD34+ stem/progenitor cells was observed similar to the results obtained from in vitro studies (FIG. 33A). […] The disclosed mechanistic and preclinical results provide strong evidence that HDAC1,2 inhibition or HDAC1,2 inhibition in combination with doxorubicin can provide a very potent therapeutic for Ph+PreB-ALL.

[5] = tested on: non-transformed, mouse bone marrow Pro-B derived Baf3 cells or cord blood stem cells; experiment: cell death in non-transformed cells; assay type: cell-based; settings: 2 μM, within 72 hr
Source text: Therefore, transformed lymphoma cells are more sensitive to HDAC1,2 inhibition when compared to the untransformed normal B-cells. HDAC1,2 inhibitor causes replication fork collapse in S-phase to trigger DNA damage response, and transformed cancer cells have increased DNA replication when compared to normal B cells. […] In addition to this property, EZH2^GOF DLBCL cells also have increased DNA repair compared to EZH2^WT DLBCL cells (FIG. 34A), which can also be targeted by HDAC1,2 inhibitor as it impairs the HDAC1,2 regulated DNA repair processes used by EZH2^GOF DLBCL cells for their survival.

[6] = tested on: doxorubicin-resistant EZH2GOF DLBCL (Karpas-422/NSG); experiment: Karpas-422/NSG xenograft mouse model; assay type: in vivo; settings: seventeen doses of ACY1035, five doses of doxorubicin
Protocol: (C) FACS analyses of human CD19 and IgM markers in peripheral blood of Karpas-422/NSG xenograft mice treated with solvent or doxorubicin (Doxo) or the HDAC1,2 inhibitor ACY1035 (H12IN). Seventeen doses of HDAC1,2 inhibitor and five doses of doxorubicin were administered.
The in vivo testing used a doxorubicin-resistant EZH2^GOF DLBCL (Karpas-422/NSG) mouse model and a doxorubicin-sensitive EZH2^WT DLBCL (SUDHL8/NSG) mouse model (FIG. 36). To create these models, NOD-SCID-Gamma (NSG) mice were injected intravenously (i.v.) with 1×10^6 Karpas-422 cells (chemoresistant and expressing the EZH2 gain-of-function mutant) or SUDHL8 cells (chemosensitive and expressing wild-type EZH2).

[7] = tested on: normal NOD-SCID-Gamma mice; settings: mouse
[8] = tested on: normal NOD-SCID-Gamma mice; experiment: hematoxylin and eosin staining of bone marrow and spleen, toxicity; settings: 25 mg/kg ACY1035 (fifteen doses) or 0.5 mg/kg doxorubicin (six doses)
Karpas-422 cells = experiment: propidium-iodide / BrdU-PI cell cycle analysis; assay type: cell-based, human; settings: 48 h
Protocol: (B): Quantitation of the cell cycle data in (A), compiled from three independent analyses. The graphs plotted the average percentage of cells in each phase of the cell cycle. […] (C): FACS analysis following BrdU-PI staining of Karpas-422 and SUDHL4 cells was performed following a 48 h or 72 h treatment with ACY-957.
Cell cycle analysis of propidium-iodide stained cells was performed with fixed cells. […] (C): FACS analysis following BrdU-PI staining of Karpas-422 and SUDHL4 cells was performed following a treatment with 2 μM ACY-957, 50 nM doxorubicin or both for 48 h.
(B): Quantitation of the cell cycle analysis performed in (A). Data from three independent cell cycle analyses were compiled and average percentage cells with standard errors were shown in this panel.
Propidium-iodide Cell Cycle Analysis.
Since these DLBCL cells expressed a hyperactive form of EZH2, pharmacological inhibition of EZH2 activity was considered a therapeutic strategy. […] GSK126 was a S-adenosyl-methionine-competitive inhibitor of EZH2 methyltransferase activity, and DZNep was a S-adenosylhomocysteine hydrolase inhibitor that disrupted the components of the PRC2 complex, thereby causing reduced chromatin-associated EZH2 levels.
To test this possibility, cell cycle analysis following treatment of Karpas-422 with ACY-957, doxorubicin, or ACY-957 in combination with doxorubicin was performed.

[9] = tested on: Karpas-422 (EZH2GOF) cells; experiment: neutral comet assay of DSB repair; assay type: cell-based, human
Source text: (A) Measurement of repair efficiency in SUDHL5 (EZH2^WT) and Karpas-422 (EZH2^GOF) cells using neutral comet assay that detects only double-strand breaks (DSBs). In the comet, the head (H) represents intact DNA and the tail (T) represents the number of DSBs in a single cell. Tail moment is a measure of length and intensity of DNA in the tail, and the average tail moments from 100 comets are indicated within the figure for each cell/treatment combination. Doxo indicates doxorubicin; H121N indicates HDAC1,2 inhibitor. (B) DNA damage in EZH2GOF cells following knockdown of HDAC1,2 using siRNA. NT indicates non-targeting control siRNA; HDAC1,2 siRNA indicates combined treatment with HDAC1 siRNA and HDAC2 siRNA. (C) Karpas-422 cells treated with DMSO solvent or HDAC1,2 inhibitor were subjected to microlaser irradiation. H3K27me3, γH2AX, Bmi-1, and serine2-phosphorylated RNA Polymerase II (engaged in transcriptional elongation) were monitored at laser break sites (arrows) after 15 minutes of recovery time. Numbers overlaying the images indicate percentages of cells with γH2AX lines that co-localized with H3K27me3, Bmi-1, or Pol2Ser2-P lines from at least four independent experiments (p value<0.01).
Indeed, EZH2, H3K27me3, and HDAC1,2 all localize to sites of DNA breaks, which links them to DNA repair. […]

[10] = tested on: SupB15 Pre-B-ALL leukemia xenograft; experiment: SupB15 Pre-B-ALL leukemia xenograft mice; assay type: in vivo, mouse; settings: same concentration of doxorubicin
Source text: Pre-B-ALL cell lines as well as Ph+ALL primary patient samples were engrafted in NOD scid gamma (NSG) mice to examine the efficacy of Hdac1,2 inhibitor in killing cells in vivo. We injected NSG mice with SupB15 cells (1×10^6) and Ph+Pre-B-ALL primary patient cells and monitored engraftment by flow cytometry using anti-human CD45/CD19 antibodies every week for 4-5 weeks. […] To examine the extent of leukemia infiltration in spleen and bone marrow, we performed IHC analysis.

Nc1ccc(-c2cccs2)cc1NC(=O)c1ccc2c(c1)cc(C1CC1)n2CCN1CCOCC1 [ACY-1035, N-(2-amino-5-(thiophen-2-yl)phenyl)-2-cyclopropyl-1-(2-morpholinoethyl)-1H-indole-5-carboxamide]
inhibition of Hdac1,2 activities compared to Hdac3 (IC50 values) (Hdac1,2): very selectively | DNA damage, quantitation of γH2AX foci [1]: statistically significant increase in DNA damage | damaged DNA (comet tail) (SupB15 cells [2]): increase in damaged DNA | γH2AX on the nascent chromatin (SupB15 cells [3]): increase in γH2AX on the nascent chromatin | human CD45 and CD19 markers in bone marrow [4]: significant reduction in the human CD45 and CD19 markers; also recorded: greater decrease in the human leukemia markers when compared to doxorubicin-treated mice | white cell burden [4]: decrease in the white cell burden | cell death [5]: did not cause any cell death | human CD19 and IgM population in peripheral blood [6]: significant decrease in human CD19 and IgM population in peripheral blood | toxic effects in vivo [7]: does not have toxic effects in vivo | morphology of bone marrow and spleen cells [8]: No changes in the morphology of spleen or bone marrow cells; also recorded: no abnormalities or changes in the cell morphology in bone marrow or spleens

COc1cccc2c1C(=O)c1c(O)c3c(c(O)c1C2=O)C[C@@](O)(C(=O)CO)C[C@@H]3O[C@H]1C[C@H](N)[C@H](O)[C@H](C)O1 [doxorubicin, reference compound]
increase in the percentage of cells in G2/M phase (Karpas-422 cells; 50 nM doxorubicin): 1.5 to 2 fold | cell death / sub-G1 population (Karpas-422 cells; 2 μM ACY-957, 50 nM doxorubicin or both): modest increase in cell death | human CD45 and CD19 markers in bone marrow [4]: significant reduction in the human CD45 and CD19 markers | white cell burden [4]: decrease in the white cell burden | DSBs, comet tail moment [9]: far less sensitive to doxorubicin | human CD19 and IgM population in peripheral blood [6]: no significant change in these markers | leukemia burden [10]: significantly decreased leukemia burden | morphology of bone marrow and spleen cells [8]: No changes in the morphology of spleen or bone marrow cells; also recorded: no abnormalities or changes in the cell morphology in bone marrow or spleens

Reference: US11154551B2, “HDAC1,2 inhibitors and methods of using the same” (UNIVERSITY OF UTAH RESEARCH FOUNDATION, priority 2014, dated 2021)
